In ChEMBL document CHEMBL1201862, “PubChem BioAssay data set” (2004):
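These data come from cells grown in 96-well plates and exposed to compound for 48 hours at five concentrations. Abbreviation: GI50, concentration required for 50% inhibition of growth.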 Calls of active or inactive are those of the source. Rule as the data show it: active = GI50 up to about 1.1 µM and inactive = higher.

Tests used:
Experiment in all cases: inhibition of tumour cell growth, NCI panel, 48 h
[1] = tested on: EKVX
[2] = tested on: SK-MEL-2
[3] = tested on: NCI-H460
[4] = tested on: LOX IMVI
[5] = tested on: SK-MEL-28
[6] = tested on: NCI-H522
[7] = tested on: HCT-15
[8] = tested on: COLO 205
[9] = tested on: SNB-75
[10] = tested on: CCRF-CEM
[11] = tested on: Malme-3M
[12] = tested on: MOLT-4
[13] = tested on: SK-MEL-5
[14] = tested on: HCC 2998
[15] = tested on: OVCAR-8
[16] = tested on: TK-10
[17] = tested on: SK-OV-3
[18] = tested on: OVCAR-5
[19] = tested on: CAKI-1
[20] = tested on: RPMI-8226

SMILES | GI50 [1] | GI50 [2] | GI50 [3] | GI50 [4] | GI50 [5] | GI50 [6] | GI50 [7] [µM] | GI50 [8] | GI50 [9] | GI50 [10] | GI50 [11] | GI50 [12] | GI50 [13] | GI50 [14] | GI50 [15] | GI50 [16] | GI50 [17] | GI50 [18] | GI50 [19] | GI50 [20]
NC(=O)Cn1c(=O)[nH]c(=O)c2[nH]cnc21 | > 100 µM (inactive) | > 100 µM (inactive) | > 100 µM (inactive) | > 100 µM (inactive) | > 100 µM (inactive) | > 100 µM (inactive) | > 100 | > 100 µM (inactive) | > 100 µM (inactive) | > 100 µM (inactive) | > 100 µM (inactive) | > 100 µM (inactive) | > 100 µM (inactive) | > 100 µM (inactive) | > 100 µM (inactive) | > 100 µM (inactive) | > 100 µM (inactive) | > 100 µM (inactive) |  | 
COc1nc(C#CCC(C)O)nc(OC)n1 (stereo unspecified) | 20 µM (inactive) | 33.7 µM (inactive) | 39.4 µM (inactive) | 14.2 µM (inactive) | 31.6 µM (inactive) | 17.7 µM (inactive) | 18.6 | 25.4 µM (inactive) | 27 µM (inactive) |  | 11.5 µM (inactive) | 33.2 µM (inactive) | 18.8 µM (inactive) |  | 17.1 µM (inactive) | 24.2 µM (inactive) | > 100 µM (inactive) | 19.1 µM (inactive) | 17.6 µM (inactive) | 
C1=N\CCOCC/N=C\c2ccc(cc2)OCc2cccc(n2)COc2ccc/1cc2 | > 100 µM (inactive) | > 100 µM (inactive) | > 100 µM (inactive) |  | > 100 µM (inactive) | > 100 µM (inactive) | > 100 | > 100 µM (inactive) | > 100 µM (inactive) | > 100 µM (inactive) | > 100 µM (inactive) | > 100 µM (inactive) |  |  | > 100 µM (inactive) | > 100 µM (inactive) | > 100 µM (inactive) | > 100 µM (inactive) |  | > 100 µM (inactive)
Cc1cccc(NC(=O)/C(=N\N)C(c2cnc3ccc([N+](=O)[O-])cc3n2)[N+](=O)[O-])c1C (stereo unspecified) | > 100 µM (inactive) | > 100 µM (inactive) | > 100 µM (inactive) | 74.8 µM (inactive) | > 100 µM (inactive) | 40.2 µM (inactive) | 53.8 | > 100 µM (inactive) | > 100 µM (inactive) | > 100 µM (inactive) | > 100 µM (inactive) | > 100 µM (inactive) | > 100 µM (inactive) | > 100 µM (inactive) | > 100 µM (inactive) | > 100 µM (inactive) | > 100 µM (inactive) |  | > 100 µM (inactive) | 
O=C(O)CNC(=O)c1ccccc1O [SALICYLURIC ACID] | > 100 µM (inactive) | > 100 µM (inactive) | > 100 µM (inactive) | > 100 µM (inactive) | > 100 µM (inactive) | > 100 µM (inactive) | > 100 | > 100 µM (inactive) | > 100 µM (inactive) | > 100 µM (inactive) | > 100 µM (inactive) | > 100 µM (inactive) | > 100 µM (inactive) |  | > 100 µM (inactive) | > 100 µM (inactive) | > 100 µM (inactive) | > 100 µM (inactive) | > 100 µM (inactive) | > 100 µM (inactive)
C=C1[C@H](OC(C)=O)[C@H]2[C@@H](OC(C)=O)[C@@H](C)C[C@]2(C)C(=O)[C@H](C)/C=C/C(C)(C)C(=O)[C@H](OCC(C)C)[C@H]1OC(C)=O | > 25 µM (inactive) | > 25 µM (inactive) | 12.6 µM (inactive) | > 25 µM (inactive) |  | > 25 µM (inactive) | > 25 | 12.9 µM (inactive) | > 25 µM (inactive) | 20.2 µM (inactive) |  | 20.7 µM (inactive) | > 25 µM (inactive) | > 25 µM (inactive) | > 25 µM (inactive) | > 25 µM (inactive) | > 25 µM (inactive) | > 25 µM (inactive) | 24.7 µM (inactive) | 
CC1=C2C(O)C(C(C)C(=O)NC(C)C)CCC2(C)C=CC1=O (stereo unspecified) | > 100 µM (inactive) | > 100 µM (inactive) | > 100 µM (inactive) | > 100 µM (inactive) | > 100 µM (inactive) | > 100 µM (inactive) | > 100 | > 100 µM (inactive) | > 100 µM (inactive) | > 100 µM (inactive) |  | > 100 µM (inactive) | > 100 µM (inactive) | > 100 µM (inactive) | > 100 µM (inactive) |  | > 100 µM (inactive) | > 100 µM (inactive) | > 100 µM (inactive) | > 100 µM (inactive)
Cc1ccc(N2C(=O)C3CSCN3C2=O)cc1 (stereo unspecified) | > 100 µM (inactive) | > 100 µM (inactive) | > 100 µM (inactive) | > 100 µM (inactive) | 15.8 µM (inactive) | > 100 µM (inactive) | > 100 | > 100 µM (inactive) | > 100 µM (inactive) | > 100 µM (inactive) |  | > 100 µM (inactive) | > 100 µM (inactive) | > 100 µM (inactive) | > 100 µM (inactive) |  | > 100 µM (inactive) | > 100 µM (inactive) | > 100 µM (inactive) | > 100 µM (inactive)
COc1ccc(/C(Cl)=C(\C=O)c2ccc(F)cc2)cc1OC | 5 µM (inactive) | 16.4 µM (inactive) | 19.3 µM (inactive) | 14.2 µM (inactive) | 24 µM (inactive) | 12.3 µM (inactive) | 12.8 | 19.6 µM (inactive) | 3.22 µM (inactive) | 10.7 µM (inactive) | 30.5 µM (inactive) | 9.91 µM (inactive) | 15.3 µM (inactive) |  | 21.5 µM (inactive) | 34.3 µM (inactive) | 39.4 µM (inactive) |  | 19.1 µM (inactive) | 6.64 µM (inactive)
O=S(=O)(O)c1cc(O)c(/N=N/c2ccc(O)cc2O)c2ccccc12 | 30.9 µM (inactive) | > 100 µM (inactive) |  | 53.1 µM (inactive) | > 100 µM (inactive) | 24.1 µM (inactive) | 64 | 38.1 µM (inactive) | > 100 µM (inactive) | 40.6 µM (inactive) | 76.4 µM (inactive) | 42.2 µM (inactive) | > 100 µM (inactive) |  | 30.8 µM (inactive) | > 100 µM (inactive) | 49.1 µM (inactive) | 46.8 µM (inactive) | > 100 µM (inactive) | > 100 µM (inactive)
COc1ccc(NC(=O)CC(=O)N2N=C(N3c4ccccc4Sc4ccccc43)CC2c2ccccc2)cc1 (stereo unspecified) | > 100 µM (inactive) | > 100 µM (inactive) | > 100 µM (inactive) |  | > 100 µM (inactive) | > 100 µM (inactive) | > 100 | > 100 µM (inactive) | 47.6 µM (inactive) | > 100 µM (inactive) |  | > 100 µM (inactive) | > 100 µM (inactive) | > 100 µM (inactive) | > 100 µM (inactive) | > 100 µM (inactive) | > 100 µM (inactive) | > 100 µM (inactive) | > 100 µM (inactive) | > 100 µM (inactive)
O=C(N/N=C/c1cc(Br)cc(Br)c1O)c1ccccc1O | 1.18 µM (inactive) | 0.433 µM (active) | 0.64 µM (active) | 0.399 µM (active) | 0.708 µM (active) | 0.311 µM (active) | 0.422 | 3.34 µM (inactive) | 3.66 µM (inactive) |  | 1.56 µM (inactive) | 0.575 µM (active) | 1.07 µM (active) | 1.03 µM (active) | 0.463 µM (active) | 0.944 µM (active) | 1.06 µM (active) | 0.723 µM (active) | 0.8 µM (active) | 
COc1ccc2nc(-c3ccc(O)cc3)ccc2c1 | 95.5 µM (inactive) |  | > 100 µM (inactive) | > 100 µM (inactive) | > 100 µM (inactive) | > 100 µM (inactive) |  | > 100 µM (inactive) | 59.7 µM (inactive) | 2.16 µM (inactive) | > 100 µM (inactive) | > 100 µM (inactive) | > 100 µM (inactive) | 10.4 µM (inactive) | > 100 µM (inactive) | > 100 µM (inactive) | > 100 µM (inactive) | > 100 µM (inactive) |  | > 100 µM (inactive)
O=C(NC1C=Nc2ccc([N+](=O)[O-])cc2NC1=O)c1cc(Cl)cc([N+](=O)[O-])c1 (stereo unspecified) | 94.8 µM (inactive) | > 100 µM (inactive) | > 100 µM (inactive) | > 100 µM (inactive) | > 100 µM (inactive) | 8.65 µM (inactive) | > 100 | 59.3 µM (inactive) | > 100 µM (inactive) | 20.8 µM (inactive) |  | 41.6 µM (inactive) | > 100 µM (inactive) | > 100 µM (inactive) | > 100 µM (inactive) | > 100 µM (inactive) | > 100 µM (inactive) | > 100 µM (inactive) | > 100 µM (inactive) | 44.2 µM (inactive)
N#C/C(=C/n1c(=S)[nH]c2ccc([N+](=O)[O-])cc21)C(N)=O | 22.2 µM (inactive) | > 100 µM (inactive) | > 100 µM (inactive) | > 100 µM (inactive) | > 100 µM (inactive) |  | > 100 | > 100 µM (inactive) | 19.7 µM (inactive) | > 100 µM (inactive) | > 100 µM (inactive) | > 100 µM (inactive) | > 100 µM (inactive) |  | > 100 µM (inactive) | > 100 µM (inactive) | > 100 µM (inactive) | > 100 µM (inactive) | > 100 µM (inactive) | > 100 µM (inactive)
N#Cc1c(OCCF)c2ccccc2n2c1nc1ccccc12 | 99.1 µM (inactive) | > 100 µM (inactive) | 21.7 µM (inactive) | 31.3 µM (inactive) | > 100 µM (inactive) | 19.6 µM (inactive) | 32.7 | > 100 µM (inactive) | 70.6 µM (inactive) | 95.7 µM (inactive) |  | 27.8 µM (inactive) | 49.5 µM (inactive) | > 100 µM (inactive) | 42.3 µM (inactive) | 31.1 µM (inactive) | 27 µM (inactive) | > 100 µM (inactive) | 52.2 µM (inactive) | > 100 µM (inactive)
